Laboratory results taken from patent US20250230138A1, “COMPOUNDS HAVING A T-STRUCTURE FORMED BY AT LEAST FOUR CYCLES FOR USE IN THE TREATMENT OF CANCER AND OTHER INDICATIONS” (TheRas, Inc., priority 2022, published 2025).
Read-outs that look alike come from different tables or passages of the source.

Key:
[1] = system: pAKT in Tet-on KRAS G12D HeLa cells; assay: Cell-based pAKT HTRF assay in Tet-on KRAS G12D HeLa cells; details: read-out: pAKT inhibition IC50 in Tet-on KRAS G12D HeLa cells
Method: To determine the effectiveness of compounds in disrupting PIK3CA/KRAS signaling in cells, we implemented pAKT HTRF assay (Perkin-Elmer) in Tet-on KRAS G12D HeLa cells.
On Day 1, cells were seeded into 96-well plates at 2×10^4 cells/well in complete growth media (DMEM, 10% Tet-Screened FBS) supplemented with 200 ng/mL doxycycline.
On Day 2, cells were treated with compounds at 0.25% DMSO. The source plate was created with compounds diluted in media at 5-fold the final assay concentration. The compounds are run in a 9-point concentration curve starting at 75 μM, with a 3-fold dilution between concentrations. […] 20 μL was transferred onto the cell plates (final volume in wells was 100 μL). Plates were harvested after 30 min and 4 hr incubation by aspirating media and adding kit-supplied 1× supplemented lysis buffer to all wells (50 μL per well). This then changed to 4 hr only when compounds became covalent. Plates were then placed on a plate shaker and incubated at 850 rpm for an additional 30 min. The antibody mixture solution was prepared by diluting aliquoted d2 and Eu Cryptate antibodies 1:20 in kit supplied detection buffer, then mixed the diluted antibodies solutions (1:1 v:v). 4 μL of this solution was then added to a 384-well detection plate (Perkin Elmer; 6008230). Samples were homogenized by pipetting up and down and then transferred (16 μL of cell lysates) from the 96-well cell culture plate to two wells of the HTRF 384-well detection plate containing the antibody solution. Plates were centrifuged (524 g for 1 min) and allowed to incubate between 4 and 24 h at room temperature. The maximum signal is reached after 4 h incubation time and remains stable over a period of 24 hours. Therefore, readings can be made between 4 and 24 h of incubation. Plates were centrifuged again (524 g for 1 min), and analyzed on the EnVision plate reader using the following settings: Excitation 320 nm, Bandwidth […]; Emission 615 nm, Bandwidth […], Gain 100%, Flashes 100, Lag 60 μs.

[2] = target: Cys242 in human PIK3CA (157-299) (Homo sapiens (Human), UniProt P42336); assay: Covalent modification assay using MALDI-TOF MS; assay type: biochemical; details: 4 h reaction time point; 3.33 μM protein target, 1:7.5 protein to compound ratio (compounds 1-852)
How it was run: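 Covalent adduct formation was read by linear-mode MALDI-TOF with sinapinic acid matrix, reported as modified-protein peak height divided by total protein peak heights. Reactions held PIK3CA (157-299) at 1 or 3.33 μM in HEPES/NaCl/MgCl2 buffer, pH 7.3, sampled after 15 min to 4 h at room temperature.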

Sequence of Cys242 in human PIK3CA (157-299) (P42336 157-299): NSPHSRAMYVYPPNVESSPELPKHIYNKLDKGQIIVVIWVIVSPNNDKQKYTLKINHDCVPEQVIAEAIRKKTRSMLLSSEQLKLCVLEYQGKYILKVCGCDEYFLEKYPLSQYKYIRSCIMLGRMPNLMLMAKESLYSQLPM

## C=CC(=O)Nc1cccc(-c2nc(-c3ccc4c(c3)CNC(=O)C4)c3ccsc3c2-c2ccc(F)cc2OCCOC)c1 [compound 51]
[1]; Tet-on KRAS G12D HeLa cells
  IC50: < 1000 nM
[2]
  % of modification: A (percent of modification of PIK3CA protein ≥75%)

## C=CC(=O)N1CCc2nc(-c3nc(-c4ccc5c(c4)CCNC5)c4ccsc4c3-c3ccc(F)cc3OCCOC)sc2C1 [Compound 58, 1-[2-[7-[4-fluoro-2-(2-methoxyethoxy)phenyl]-4-(1,2,3,4-tetrahydroisoquinolin-6-yl)thieno[3,2-c]pyridin-6-yl]-6,7-dihydro-4H-thiazolo[5,4-c]pyridin-5-yl]prop-2-en-1-one]
[2]
  % of modification: A (percent of modification of PIK3CA protein ≥75%)

## C=CC(=O)N1CC[C@H](n2cc(-c3nc(-c4ccc5c(c4)CCNC5)c4ccsc4c3-c3ccc(F)cc3OCCOC)cn2)C1 [compound 47]
[1]; Tet-on KRAS G12D HeLa cells
  IC50: < 1000 nM
[2]
  % of modification: A (percent of modification of PIK3CA protein ≥75%)

## C=CC(=O)N1CCCC(n2cc(-c3nc(-c4ccc5c(c4)CCNC5)c4ccsc4c3-c3ccc(F)cc3OCCOC)cn2)C1 (stereo not shown) [compound 31]
[1]; Tet-on KRAS G12D HeLa cells
  IC50: < 1000 nM
[2]
  % of modification: A (percent of modification of PIK3CA protein ≥75%)

## C=CC(=O)Nc1cccc(-c2nc(-c3ccc4c(c3)CCNC4)c3ccsc3c2-c2ccc(F)cc2OCCOC)c1 [Compound 12, N-[3-[7-[4-fluoro-2-(2-methoxyethoxy)phenyl]-4-(1,2,3,4-tetrahydroisoquinolin-6-yl)thieno[3,2-c]pyridin-6-yl]phenyl]prop-2-enamide]
[1]; Homo sapiens, HeLa
  IC50: 1000 to 10000 nM
[2]
  % of modification: A (percent of modification of PIK3CA protein ≥75%)

## C=CC(=O)N1CCc2ccc(-c3nc(-c4ccc5c(c4)CCNC5)c4ccsc4c3-c3ccc(F)cc3OCCOC)cc2C1 [compound 42]
[1]; Tet-on KRAS G12D HeLa cells
  IC50: < 1000 nM
[2]
  % of modification: A (percent of modification of PIK3CA protein ≥75%)

## C=CC(=O)N1CC(n2cc(-c3nc(-c4ccc5c(c4)CCNC5)c4ccsc4c3-c3ccc(F)cc3OCCOC)cn2)C1 [Compound 44, 1-[3-[4-[7-[4-fluoro-2-(2-methoxyethoxy)phenyl]-4-(1,2,3,4-tetrahydroisoquinolin-6-yl)thieno[3,2-c]pyridin-6-yl]pyrazol-1-yl]azetidin-1-yl]prop-2-en-1-one]
[1]; Homo sapiens, HeLa
  IC50: < 1000 nM
[2]
  % of modification: A (percent of modification of PIK3CA protein ≥75%)
